Laboratory results taken from PubChem BioAssay AID248 (DTP/NCI, 2004).
Where “and” joins values, the source holds several entries; their conditions need not be identical. Equal entries are not always repeated. Inconclusive results and toxic doses are left out. Cut-off read from the data, not from the text of the source: active = T/C of 150% or more; inactive = T/C below 125%.

System: L1210 leukemia ip in BDF1 mice, survival T/C
Experiment: NCI In Vivo Anticancer Drug Screen. Data for tumor model L1210 Leukemia (intraperitoneal) in B6D2F1 (BDF1) mice
Conditions: endpoint: mean survival time, higher = longer survival
Procedure, shortened: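 Each compound was tested against a transplantable tumor grown in mice. The endpoint was survival, with treated animals benchmarked against vehicle controls as a simple ratio.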

[1] = dose: 75.0 mg/kg/injection, schedule: Q01DX001 (ip), vehicle: saline
[2] = dose: 100.0 mg/kg/injection, schedule: Q04DX003 (ip), vehicle: Klucel (hydroxypropylcellulose) (HPC)
[3] = dose: 200.0 mg/kg/injection, schedule: Q04DX003 (ip), vehicle: Klucel (hydroxypropylcellulose) (HPC)
[4] = dose: 400.0 mg/kg/injection, schedule: Q04DX003 (ip), vehicle: Klucel (hydroxypropylcellulose) (HPC)
[5] = dose: 50.0 mg/kg/injection, schedule: Q01DX001 (ip), vehicle: carboxymethylcellulose (CMC)
[6] = dose: 100.0 mg/kg/injection, schedule: Q01DX001 (ip), vehicle: carboxymethylcellulose (CMC)
[7] = dose: 200.0 mg/kg/injection, schedule: Q01DX001 (ip), vehicle: carboxymethylcellulose (CMC)
[8] = dose: 400.0 mg/kg/injection, schedule: Q01DX001 (ip), vehicle: carboxymethylcellulose (CMC)
[9] = dose: 100.0 mg/kg/injection, schedule: Q01DX009 (ip), vehicle: Klucel (hydroxypropylcellulose) (HPC)
[10] = dose: 200.0 mg/kg/injection, schedule: Q01DX009 (ip), vehicle: Klucel (hydroxypropylcellulose) (HPC)
[11] = dose: 100.0 mg/kg/injection, schedule: Q01DX009 (ip), vehicle: saline with Tween-80
[12] = dose: 200.0 mg/kg/injection, schedule: Q01DX009 (ip), vehicle: saline with Tween-80
[13] = dose: 400.0 mg/kg/injection, schedule: Q01DX009 (ip), vehicle: Klucel (hydroxypropylcellulose) (HPC)
[14] = dose: 100.0 mg/kg/injection, schedule: Q04DX003 (ip), vehicle: saline with Tween-80
[15] = dose: 50.0 mg/kg/injection, schedule: Q01DX009 (ip), vehicle: saline with Tween-80

Measured: T/C

COS(=O)(=O)c1ccc(Cl)c([N+](=O)[O-])c1
inactive: dose: 0.38 mg/kg/injection, schedule: Q01DX009 (ip), vehicle: saline 97 % of control | dose: 0.75 mg/kg/injection, schedule: Q01DX009 (ip), vehicle: saline 102 % of control | dose: 0.75 mg/kg/injection, schedule: Q04DX003 (ip), vehicle: saline with Tween-80 101 % of control | dose: 1.5 mg/kg/injection, schedule: Q01DX009 (ip), vehicle: saline 97 % of control | dose: 1.5 mg/kg/injection, schedule: Q04DX003 (ip), vehicle: saline with Tween-80 90 % of control

Nc1nc(Cl)[nH]c(=O)n1
inactive: dose: 12.5 mg/kg/injection, schedule: Q01DX001 (ip), vehicle: Klucel (hydroxypropylcellulose) (HPC) 105 % of control | dose: 25.0 mg/kg/injection, schedule: Q01DX001 (ip), vehicle: Klucel (hydroxypropylcellulose) (HPC) 97 % of control | dose: 50.0 mg/kg/injection, schedule: Q01DX001 (ip), vehicle: Klucel (hydroxypropylcellulose) (HPC) 100 % of control

Cc1cc(=O)[nH]c2c(Br)cccc12
inactive: dose: 75.0 mg/kg/injection, schedule: Q04DX003 (ip), vehicle: Klucel (hydroxypropylcellulose) (HPC) 87 % of control | dose: 150.0 mg/kg/injection, schedule: Q04DX003 (ip), vehicle: Klucel (hydroxypropylcellulose) (HPC) 97 % of control | dose: 300.0 mg/kg/injection, schedule: Q04DX003 (ip), vehicle: Klucel (hydroxypropylcellulose) (HPC) 97 % of control

O=C1Nc2ccccc2C1=Nc1cccc2ncccc12
inactive: dose: 100.0 mg/kg/injection, schedule: Q01DX001 (ip), vehicle: acetone 97 % of control | dose: 200.0 mg/kg/injection, schedule: Q01DX001 (ip), vehicle: acetone 93 % of control | dose: 400.0 mg/kg/injection, schedule: Q01DX001 (ip), vehicle: acetone 100 % of control

[N-]=[N+]=Nc1nc(Cl)nc2c1ncn2Cc1ccccc1
inactive: dose: 75.0 mg/kg/injection, schedule: Q01DX001 (ip), vehicle: other 97 % of control

CN(C)c1ccc(/C=C\c2cc(/C=C/c3ccc(N(C)C)cc3)c([N+](=O)[O-])cc2[N+](=O)[O-])cc1
inactive: [1] 98 % of control and 89 % of control | dose: 150.0 mg/kg/injection, schedule: Q01DX001 (ip), vehicle: saline 86 % of control | dose: 300.0 mg/kg/injection, schedule: Q01DX001 (ip), vehicle: saline 95 % of control and 101 % of control

O=C1c2ccccc2C(=O)c2c(O)cccc21
inactive: [2] 101 % of control | [3] 89 % of control | [4] 105 % of control

O=c1[nH]cnc2[nH]cc([N+](=O)[O-])c12
inactive: [5] 101 % of control | [6] 89 % of control | [7] 98 % of control and 87 % of control | [8] 93 % of control and 97 % of control

Nc1nc(O)c2[nH]c(N=Nc3ccc(-c4ccc(N=Nc5nc6nc(N)nc(O)c6[nH]5)cc4)cc3)nc2n1
inactive: [2] 98 % of control | [3] 93 % of control | [4] 88 % of control

Cc1cc(C)cc(OCC2C(COC(=O)c3cccc(Cl)c3)c3ccccc3N2C)c1 (stereo not given)
inactive: [9] 89 % of control | [10] 94 % of control

O=C(Nc1cccc2ccccc12)OCCCBr
inactive: [11] 90 % of control | [12] 90 % of control

COc1ccc(/C=N/NC(=O)c2ccccc2)c(OC)c1
inactive: [9] 100 % of control | [10] 100 % of control | [13] 103 % of control

COc1ccc2c(c1C)C(=O)c1ccccc1C2
inactive: dose: 100.0 mg/kg/injection, schedule: Q01DX001 (ip), vehicle: saline with Tween-80 93 % of control | dose: 200.0 mg/kg/injection, schedule: Q01DX001 (ip), vehicle: saline with Tween-80 101 % of control | dose: 400.0 mg/kg/injection, schedule: Q01DX001 (ip), vehicle: saline with Tween-80 90 % of control

O=[N+]([O-])c1ccc(OCc2ccccc2)c(Cl)c1
inactive: dose: 25.0 mg/kg/injection, schedule: Q04DX003 (ip), vehicle: saline with Tween-80 102 % of control | dose: 50.0 mg/kg/injection, schedule: Q04DX003 (ip), vehicle: saline with Tween-80 96 % of control | [14] 98 % of control and 105 % of control

NC1c2ccccc2CC1C(=O)O (stereo not given)
inactive: dose: 100.0 mg/kg/injection, schedule: Q01DX001 (ip), vehicle: saline 95 % of control | dose: 200.0 mg/kg/injection, schedule: Q01DX001 (ip), vehicle: saline 97 % of control

CCC1CN2CCc3cc(OC)c(OC)cc3C2CC1CC1c2cc(OC)c(OC)cc2CCN1C(=O)C1CCCN1C(=O)OCc1ccccc1 (stereo not given)
inactive: [5] 97 % of control | [6] 101 % of control | [7] 106 % of control | [8] 97 % of control

CCOC(=O)C(=N\Nc1ccc(C)cc1C)/C(C)=N\NC(N)=S
inactive: [1] 105 % of control

Cc1cccc2c(Cl)c3cccc(C)c3nc12
inactive: [9] 96 % of control | dose: 100.0 mg/kg/injection, schedule: Q04DX003 (ip), vehicle: other 95 % of control | [10] 93 % of control | dose: 200.0 mg/kg/injection, schedule: Q04DX003 (ip), vehicle: other 94 % of control | [13] 102 % of control | dose: 400.0 mg/kg/injection, schedule: Q04DX003 (ip), vehicle: other 97 % of control

Cc1cccc(C)c1NC(=O)OCCSc1ccc(Cl)cc1
inactive: [15] 115 % of control | [11] 96 % of control | [12] 93 % of control

OCCOc1ccc(OCCO)cc1
inactive: [14] 94 % of control | dose: 200.0 mg/kg/injection, schedule: Q04DX003 (ip), vehicle: saline with Tween-80 97 % of control | dose: 400.0 mg/kg/injection, schedule: Q04DX003 (ip), vehicle: saline with Tween-80 99 % of control

CCCCCOP(=O)(OCCCCC)C(c1ccccc1)c1ccccc1
inactive: dose: 100.0 mg/kg/injection, schedule: Q04DX002 (ip), vehicle: saline 100 % of control | dose: 200.0 mg/kg/injection, schedule: Q04DX002 (ip), vehicle: saline 100 % of control | dose: 400.0 mg/kg/injection, schedule: Q04DX002 (ip), vehicle: saline 96 % of control

CN(C)c1ccc(/C=N\NC(=O)c2ccco2)cc1
inactive: dose: 200.0 mg/kg/injection, schedule: Q01DX001 (ip), vehicle: other 93 % of control | dose: 400.0 mg/kg/injection, schedule: Q01DX001 (ip), vehicle: other 90 % of control

CC(=O)OC1CCC2(C)C(=CC=C3C2=CCC2(C)C(=O)CCC32)C1 (stereo not given)
inactive: [15] 87 % of control | [11] 90 % of control | [12] 90 % of control

OC(CNc1ccc(Cl)cc1)CN1CCCC1 (stereo not given)
inactive: dose: 75.0 mg/kg/injection, schedule: Q04DX003 (ip), vehicle: saline 101 % of control

CSc1nncc(=O)[nH]1.[Hg]
inactive: dose: 5.0 mg/kg/injection, schedule: Q01DX001 (ip), vehicle: carboxymethylcellulose (CMC) 91 % of control | dose: 10.0 mg/kg/injection, schedule: Q01DX001 (ip), vehicle: carboxymethylcellulose (CMC) 102 % of control

CCOc1ccn(CC(=O)Nc2nccs2)c(=O)n1
inactive: dose: 100.0 mg/kg/injection, schedule: Q01DX009 (ip), vehicle: saline 100 % of control | dose: 100.0 mg/kg/injection, schedule: Q04DX003 (ip), vehicle: saline 98 % of control | dose: 200.0 mg/kg/injection, schedule: Q01DX009 (ip), vehicle: saline 103 % of control | dose: 200.0 mg/kg/injection, schedule: Q04DX003 (ip), vehicle: saline 96 % of control | dose: 400.0 mg/kg/injection, schedule: Q01DX009 (ip), vehicle: saline 105 % of control | dose: 400.0 mg/kg/injection, schedule: Q04DX003 (ip), vehicle: saline 100 % of control

CC(=O)OC(C)C(=O)C(Cl)(Cl)Cl (stereo not given)
inactive: [9] 100 % of control | [2] 96 % of control | [10] 98 % of control | [3] 103 % of control | [13] 91 % of control | [4] 101 % of control

O=C(NCCCl)Nc1ccccc1
inactive: dose: 100.0 mg/kg/injection, schedule: Q01DX001 (ip), vehicle: Klucel (hydroxypropylcellulose) (HPC) 93 % of control | [2] 122 % of control | dose: 200.0 mg/kg/injection, schedule: Q01DX001 (ip), vehicle: Klucel (hydroxypropylcellulose) (HPC) 101 % of control | [3] 104 % of control

CCOC(=O)C(Cl)c1ccc(OC)cc1 (stereo not given)
inactive: dose: 100.0 mg/kg/injection, schedule: Q01DX009 (ip), vehicle: other 111 % of control | dose: 200.0 mg/kg/injection, schedule: Q01DX009 (ip), vehicle: other 98 % of control | dose: 400.0 mg/kg/injection, schedule: Q01DX009 (ip), vehicle: other 102 % of control
